Laboratory results taken from patent US20040132619A1, “Selective substituted aryl ketone and safener based herbicides” (priority 2001, published 2004).

Legend:
[1] = logP (physical data, Table 1); type: physicochemical; details: footnote a) not given
Amaranthus = assay: Post-emergence test/greenhouse, damage to Amaranthus; type: in vivo; details: Table A3
Method: (§1) The active compound or safener components are in each case dissolved in a little solvent and then—if appropriate after addition of an emulsifier—diluted with water to the desired concentration. Preferably, an aqueous spray liquor is prepared using 0.1% of the additive Renex-36. Acetone and N,N-dimethylformamide are used as preferred solvents.
(§2) The test plants are grown under controlled conditions (temperature, light, atmospheric humidity) in a greenhouse. The test plants are sprayed when they have reached a height of 5-15 cm. The concentration of the spray liquor is chosen such that the particular amounts of active compound desired are applied in 500 l of water/ha.
(§3) After spraying, the pots with the test plants are kept in a greenhouse chamber under controlled conditions (temperature, light, atmospheric humidity) until the test has ended. About three weeks after the application, the degree of damage to the crop plants is rated in % damage in comparison to the development of the untreated control.
(§4) 0% =no damage (like untreated control)
(§5) 100% =total destruction/damage
(§6) Active compounds, application rates, test plants and results are shown in the tables below, the terms being used in the tables being as defined below:
(§7) a.i.=active ingredient=active compound/safener

Chenopodium = assay: Post-emergence test/greenhouse, damage to Chenopodium; type: in vivo; details: Table A3
Method: as §1, §2, §3, §4, §5, §6, §7

maize cv. “Pioneer” = assay: Post-emergence test/greenhouse, damage to maize; type: in vivo; details: Table A3
Method: as §1, §2, §3, §4, §5, §6
maize=maize cv. “Pioneer”
as §7

barley cv. “Coronar” = assay: Post-emergence test/greenhouse, damage to barley; type: in vivo
Method: (§8) The active compound or safener components are in each case dissolved in a little solvent and then—if appropriate after addition of an emulsifier—diluted with water to the desired concentration. […] Acetone and N,N-dimethylformamide are used as preferred solvents. The test plants are grown under controlled conditions (temperature, light, atmospheric humidity) in a greenhouse. […] After spraying, the pots with the test plants are kept in a greenhouse chamber under controlled conditions (temperature, light, atmospheric humidity) until the test has ended. […] The figures denote: 0% =no damage (like untreated control) […] Active compounds, application rates, test plants and results are shown in the tables below, the terms being used in the tables being as defined below: wheat=wheat cv. “Orestis”, barley=barley cv. “Coronar” a.i.=active ingredient=active compound/safener

wheat cv. “Orestis” = assay: Post-emergence test/greenhouse, damage to wheat; type: in vivo
Method: as §8

[2] = Table A1: sown 31 March, application 19 April (20 days), 125 g of a.i./ha
[3] = Table A1: sown 31 March, application 19 April (20 days), 250 g of a.i./ha
[4] = Table A1: sown 31 March, application 19 April (20 days), 500 g of a.i./ha
[5] = Table A2: sown 12 April, application 10 May (4 weeks), 125 g of a.i./ha
[6] = Table A2: sown 12 April, application 10 May (4 weeks), 250 g of a.i./ha
[7] = Table A2: sown 12 April, application 10 May (4 weeks), 500 g of a.i./ha

COc1c(C(=O)c2cnoc2C2CC2)ccc(Cl)c1CN1CCN(C)C1=O [Example I-14]
logP [1]: logP = 2.46^a)

CCN1CCCN(Cc2c(S(C)(=O)=O)ccc(C(=O)C3C(=O)CCCC3=O)c2Cl)C1=O [Example I-12]
logP [1]: logP = 1.96^a)

COc1nn(Cc2cc(C(F)(F)F)ccc2C(=O)C2C(=O)CCCC2=O)c(=O)n1C [Example I-5]
Damage Amaranthus (in %) (Amaranthus; 30 g of a.i./ha): 100%
Damage Amaranthus (in %) (Amaranthus; 60 g of a.i./ha): 100%
Damage Amaranthus (in %) (Amaranthus; 125 g of a.i./ha): 100%
logP [1]: logP = 2.35^a)
Damage Chenopodium (in %) (Chenopodium; 30 g of a.i./ha): 100%
Damage Chenopodium (in %) (Chenopodium; 60 g of a.i./ha): 100%
Damage Chenopodium (in %) (Chenopodium; 125 g of a.i./ha): 100%
Damage Maize (in %) (maize cv. “Pioneer”; 30 g of a.i./ha): 30%
Damage Maize (in %) (maize cv. “Pioneer”; 60 g of a.i./ha): 60%
Damage Maize (in %) (maize cv. “Pioneer”; 125 g of a.i./ha): 70%

CSc1nn(Cc2cc(C(F)(F)F)ccc2C(=O)C2C(=O)CCCC2=O)c(=O)n1C [Example I-15]
Damage Barley (in %) (5 days) (barley cv. “Coronar”; [2]): 40%
Damage Barley (in %) (20 days) (barley cv. “Coronar”; [2]): 10%
Damage Barley (in %) (5 days) (barley cv. “Coronar”; [3]): 50%
Damage Barley (in %) (20 days) (barley cv. “Coronar”; [3]): 15%
Damage Barley (in %) (5 days) (barley cv. “Coronar”; [4]): 50%
Damage Barley (in %) (20 days) (barley cv. “Coronar”; [4]): 20%
Damage Barley (in %) (5 days) (barley cv. “Coronar”; [5]): 35%
Damage Barley (in %) (20 days) (barley cv. “Coronar”; [5]): 25%
Damage Barley (in %) (5 days) (barley cv. “Coronar”; [6]): 35%
Damage Barley (in %) (20 days) (barley cv. “Coronar”; [6]): 30%
Damage Barley (in %) (5 days) (barley cv. “Coronar”; [7]): 35%
Damage Barley (in %) (20 days) (barley cv. “Coronar”; [7]): 50%
Damage Wheat (in %) (5 days) (wheat cv. “Orestis”; [2]): 30%
Damage Wheat (in %) (20 days) (wheat cv. “Orestis”; [2]): 20%
Damage Wheat (in %) (5 days) (wheat cv. “Orestis”; [3]): 40%
Damage Wheat (in %) (20 days) (wheat cv. “Orestis”; [3]): 20%
Damage Wheat (in %) (5 days) (wheat cv. “Orestis”; [4]): 40%
Damage Wheat (in %) (20 days) (wheat cv. “Orestis”; [4]): 30%
Damage Wheat (in %) (5 days) (wheat cv. “Orestis”; [5]): 20%
Damage Wheat (in %) (20 days) (wheat cv. “Orestis”; [5]): 30%
Damage Wheat (in %) (5 days) (wheat cv. “Orestis”; [6]): 35%
Damage Wheat (in %) (20 days) (wheat cv. “Orestis”; [6]): 40%
Damage Wheat (in %) (5 days) (wheat cv. “Orestis”; [7]): 35%
Damage Wheat (in %) (20 days) (wheat cv. “Orestis”; [7]): 50%
logP [1]: logP = 2.59^a)

CN1CCCN(Cc2c(S(C)(=O)=O)ccc(C(=O)C3C(=O)CCCC3=O)c2Cl)C1=O [Example I-11]
logP [1]: logP = 1.73^a)
